In patent publication US20180327375A1, “AROMATIC SURFACTANTS” (REGENTS OF THE UNIVERSITY OF MINNESOTA, priority 2015, published 2018):
Where “and” joins values, the source holds several entries; their conditions need not be identical. Equal entries are not always repeated. Structures can show the parent of a compound that is named as a salt. Where two headings read alike, the source gives them in different places.

How the values were obtained:
Assay type in all cases: physicochemical
[1] = Krafft point by conductivity vs temperature; details: 1.0 wt % surfactant in water (2.0 wt % for OFS-12-1/O)
Experimental: Krafft point or Krafft temperature is the minimum temperature at which surfactants form micelles. Below Krafft point, the surfactants precipitate out of solution and remain in the crystalline phase. FIG. 30 depicts the apparatus utilized for the measurement of Krafft points. A 1.0 wt % solution of surfactant in deionized water was prepared for all surfactants except in the case of OFS-12-1/O where a 2.0 wt % solution was used instead, since its CMC is roughly about 1.1 wt %. 50 mL of the prepared solution was poured into a beaker surrounded by a freezing mixture of ice and salt (sodium chloride) mounted on a laboratory hot plate with magnetic stirring. The Krafft point (TK) of the surfactants was measured by estimating the degree of counterion dissociation using a conductivity meter (COND 6+, Oakton/Eutech Instruments) immersed in the surfactant solution capable of measuring both, conductivity and temperature. The magnetic stirring speed was set to 650 rpm and the solution was first allowed to cool to 0° C. Upon attainment of this temperature, the solution was slowly heated and the conductivity was measured in every 0.5° C. increments until it reached a steady value. […] Visually, this corresponded to the surfactant solution transitioning from a turbid system due to the precipitated surfactant crystals below the Krafft point to a clear solution indicating the dissolution of surfactants and the formation of micelles in water.
For the OFS-Cocinic, n=8-18 surfactant, the conductivity vs temperature plot was erratic, which is attributed to the presence of 6 different surfactants in the mixture. The solution changed from turbid to clear at approximately 18.5° C. which was, therefore, reported as the Krafft point. Methyl Ester Sulfonate (MES), Sodium Lauryl Ether Sulfate (SLES), OFS-7 and all OFS-n-1/O surfactant solutions remained clear even at 0° C.; the Krafft point was thus reported as <0° C.

[2] = Hardness tolerance / hard water stability (surface tension and turbidity vs CaCl2 concentration); details: for Turbid conc.: onset of turbidity
Excerpt: Precipitation of the anionic surfactant from hard water is an undesired process in detergency. The tendency of the anionic surfactants to precipitate is quantified by analyzing hardness tolerance. Hardness tolerance is the minimum concentration of counterion, such as, Ca^2+ and Mg^2+, precipitating with surfactant, resulting in deactivation of the surfactant performance (C. H. Rodriguez, L. H. Lowery, J. F. Scamehorn, J. H. Harwell, Kinetics of precipitation of surfactants. I. Anionic surfactants with calcium and with cationic surfactants. Journal of Surfactants and Detergents 4, 1-14 (2001); C. H. Rodriguez, C. Chintanasathien, J. F. Scamehorn, C. Saiwan, S. Chavadej, Precipitation in solutions containing mixtures of synthetic anionic surfactant and soap. I. Effect of sodium octanoate on hardness tolerance of sodium dodecyl sulfate. Journal of Surfactants and Detergents 1, 321-328 (1998); and J. F. Scamehorn, “Precipitation of mixtures of anionic surfactants” in mixed Surfactant systems ACS Symposium Series (American Chemical Society: Washington D.C., 1992), pp. 392-401). Calcium chloride was used as a divalent counterion, and surface tension of the surfactant solution was measured with increasing concentration of CaCl2 from 1 mM to 450 mM. The value of calcium concentration above which the surface tension of the surfactant solution increased was recorded as the tolerance value of the surfactant towards calcium as indicated by the dashed red line in FIGS. 46A to 49B.
All experiments were carried out at a concentration equal to twice CMC of each surfactant, and the point of transition from a clear solution to a turbid one was also monitored. FIGS. 50A to 50E illustrate this effect for a linear alkylbenzene sulfonate (LAS) solution. Below the turbid point, the surfactant solution was clear as shown by FIGS. 50B and 50C which changed to a cloudy solution at calcium concentrations equal to and greater than the turbid point (FIG. 50D and FIG. 50E). The point of micelle stability was marked by an increase in the surface tension of the surfactant solution with an increase in calcium concentration. FIG. 50C corresponds to the micelle stability concentration and FIG. 50D corresponds to the turbid concentration. Micelle stability is defined as the calcium concentration at the increasing point of surface tension, and turbid concentration marks the onset of turbidity in the surfactant solution The solution transitions from clear to turbid as shown in FIGS. 50B to 50E

[3] = Particle size distribution of micelles via dynamic light scattering (DLS)
Experimental: Dynamic Light Scattering (DLS) has been used in the past for studying surfactant aggregates (N. Vlachy, M. Drechsler, J.-M. Verbavatz, D. Touraud, W. Kunz, Role of surfactant headgroup on the counterion specificity in the micelle-to-vesicle transition through salt addition. J. Colloid Interface Sci. 319, 542-548 (2008)). Micelle size distribution studies of the OFS-12 surfactant was performed using the Microtrac NANO-flex analyzer which employs a 180° scattering angle DLS technique. Two different surfactant concentration samples were prepared (5.0 and 10×CMC, 0.35 and 0.7 wt %) by dissolving the required amount of surfactant in deionized water and filtering the solution after surfactant dissolution using a 0.2μ micropore filter to remove any dust particles. Prior to each sample run, a blank solution (DI water) was used to set the baseline to zero. FIGS. 26A and 26B show the average particle size distribution plots for the surfactant solutions. The average values were computed based on five individual trials each lasting 120 sec.

With `CCCCCCCc1ccc(S(=O)(=O)[O-])o1.[Na+]` [OFS-7, Sodium 5-Heptylfuran-2-Sulfonate] the “Krafft Point” value [1] was less than 0 °C, the “Micelle Stability” value [2] was 120 ppm Ca^2+ and the Micelle stability conc. [2] was 110 ppm of CaCl2. The Turbid conc. ([2]; surfactant at twice CMC) was 230 ppm of CaCl2.
In the case of `CCCCCCCCCCCCc1ccc(S(=O)(=O)[O-])o1.[Na+]` [OFS-12, Sodium 5-Dodecylfuran-2-Sulfonate], the “Krafft Point” value [1] was 30 °C and 30.0 ± 1.0 °C, the “Micelle Stability” value [2] was > 50,000 ppm Ca^2+ and the Micelle stability conc. [2] was >50,000 ppm of CaCl2. The Turbid conc. ([2]; surfactant at twice CMC) was 10,000 ppm of CaCl2, the “Average micelle size (number distribution)” value ([3]; surfactant concentration 5.0×CMC in deionized water) was 7.41 nm and the “Average micelle size (number distribution)” value ([3]; surfactant concentration 10.0×CMC in deionized water) was 6.29 nm.
In the case of `CCCCCCCCCCCCCCc1ccc(S(=O)(=O)[O-])o1.[Na+]` [OFS-14, Sodium 5-Tetradecylfuran-2-Sulfonate], the “Krafft Point” value [1] was 41.5 °C and 41.5 ± 0.9 °C, the “Micelle Stability” value [2] was > 50,000 ppm Ca^2+ and the Micelle stability conc. [2] was >50,000 ppm of CaCl2. For the same molecule, the Turbid conc. ([2]; surfactant at twice CMC) was 2,000 ppm of CaCl2.
With `CCCCCCCCCCCCOS(=O)(=O)O` [SLS, sodium dodecyl sulfate, reference compound] the “Krafft Point” value ([1]; sulfate) was 15 °C and 15.0 ± 1.2 °C, the Micelle stability conc. ([2]; surfactant at twice CMC) was 33 ppm of CaCl2 and the “Micelle Stability” value ([2]; surfactant at twice CMC, calcium concentration where surface tension starts to increase) was 33 ppm Ca^2+. The Turbid conc. ([2]; surfactant at twice CMC) was 33 ppm of CaCl2.
With “sodium lauryl ether sulfate [SLES, reference compound]” the “Krafft Point” value [1] was less than 0 °C, the “Micelle Stability” value [2] was > 50,000 ppm Ca^2+ and the Micelle stability conc. [2] was >50,000 ppm of CaCl2. The Turbid conc. ([2]; surfactant at twice CMC) was >50,000 ppm of CaCl2.
